Laboratory results: BigSolDB 2.1

COC(=O)Nc1nc2ccc(Sc3ccccc3)cc2[nH]1
solubility (mole fraction)
Settings	283.15 K	288.15 K	293.15 K	298.15 K	303.15 K	308.15 K	313.15 K	318.15 K	323.15 K	328.15 K
in 1,4-dioxane	–	0.00107	0.00124	0.00148	0.00169	0.00195	0.00222	0.00256	0.00289	0.00326
in NMP	0.0348	0.0389	0.0435	0.0485	0.0537	0.059	0.0651	0.0711	0.0773	0.0843
in acetone	0.000176	0.000192	0.000211	0.000228	0.000246	0.000265	0.000287	0.000308	0.00033	0.000353
in water	3.48e-06	4.4e-06	5.61e-06	7.12e-06	9.14e-06	1.15e-05	1.43e-05	1.77e-05	2.14e-05	2.63e-05
